In patent publication US10189816B2, “Substituted pyridines as inhibitors of human immunodeficiency virus replication” (priority 2015, dated 2019):
Where two headings read alike, the source gives them in different places.

System: NL-RLuc virus
Experiment: Inhibition of HIV replication (NL-RLuc reporter virus in MT-2 cells, luciferase readout)
Format: cell-based
Conditions: Human immunodeficiency virus 1, MT2, 120 h
Method in brief: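 Antiviral EC50 came from luciferase signal after 5-day multicycle replication of NL-RLuc virus in MT-2 cells with serially diluted compound (RPMI 1640, 10% heat-inactivated FBS), fitted by the median effect equation over at least 2 experiments.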

Row | SMILES | EC50 (read-out: Activity) [µM] | EC50 (read-out: EC50 μM) [µM]
1 | COc1ccc(CN2CCc3cc(-c4c(C)nc(C)c([C@H](OC(C)(C)C)C(=O)O)c4N4CCC(C)(C)CC4)ccc3C2)c(C)c1C [Compound 147, (S)-2-(tert-butoxy)-2-(4-(4,4-dimethylpiperidin-1-yl)-5-(2-(4-methoxy-2,3-dimethylbenzyl)-1,2,3,4-tetrahydroisoquinolin-6-yl)-2,6-dimethylpyridin-3-yl)acetic acid] | < 0.1 | 
2 | COc1cc(C)c(CN2CCc3cc(-c4c(C)nc(C)c([C@H](OC(C)(C)C)C(=O)O)c4N4CCC(C)(C)CC4)ccc3C2)cc1C [Compound 148, (S)-2-(tert-butoxy)-2-(4-(4,4-dimethylpiperidin-1-yl)-5-(2-(4-methoxy-2,5-dimethylbenzyl)-1,2,3,4-tetrahydroisoquinolin-6-yl)-2,6-dimethylpyridin-3-yl)acetic acid] | < 0.1 | 
3 | CCOc1ccc(CN2CCc3cc(-c4c(C)nc(C)c([C@H](OC(C)(C)C)C(=O)O)c4N4CCC(C)(C)CC4)ccc3C2)cc1 [Compound 149, (S)-2-(tert-butoxy)-2-(4-(4,4-dimethylpiperidin-1-yl)-5-(2-(4-ethoxybenzyl)-1,2,3,4-tetrahydroisoquinolin-6-yl)-2,6-dimethylpyridin-3-yl)acetic acid] | < 0.1 | 
4 | Cc1nc(C)c([C@H](OC(C)(C)C)C(=O)O)c(N2CCC(C)(C)CC2)c1-c1ccc2c(c1)CCN(Cc1ccc(OC(C)C)cc1)C2 [Compound 150, (S)-2-(tert-butoxy)-2-(4-(4,4-dimethylpiperidin-1-yl)-5-(2-(4-isopropoxybenzyl)-1,2,3,4-tetrahydroisoquinolin-6-yl)-2,6-dimethylpyridin-3-yl)acetic acid] | < 0.1 | 0.021
5 | COc1ccc(C(F)(F)F)cc1CN1CCc2cc(-c3c(C)nc(C)c([C@H](OC(C)(C)C)C(=O)O)c3N3CCC(C)(C)CC3)ccc2C1 [Compound 151, (S)-2-(tert-butoxy)-2-(4-(4,4-dimethylpiperidin-1-yl)-5-(2-(2-methoxy-5-(trifluoromethyl)benzyl)-1,2,3,4-tetrahydroisoquinolin-6-yl)-2,6-dimethylpyridin-3-yl)acetic acid] | < 0.1 | 
6 | Cc1nc(C)c([C@H](OC(C)(C)C)C(=O)O)c(N2CCC(C)(C)CC2)c1-c1ccc2c(c1)CCN(Cc1ccccc1OC(C)C)C2 [Compound 152, (S)-2-(tert-butoxy)-2-(4-(4,4-dimethylpiperidin-1-yl)-5-(2-(2-isopropoxybenzyl)-1,2,3,4-tetrahydroisoquinolin-6-yl)-2,6-dimethylpyridin-3-yl)acetic acid] | < 0.1 | 
7 | Cc1nc(C)c([C@H](OC(C)(C)C)C(=O)O)c(N2CCC(C)(C)CC2)c1-c1ccc2c(c1)CCN(Cc1ccccc1OCC(C)C)C2 [Compound 153, (S)-2-(tert-butoxy)-2-(4-(4,4-dimethylpiperidin-1-yl)-5-(2-(2-isobutoxybenzyl)-1,2,3,4-tetrahydroisoquinolin-6-yl)-2,6-dimethylpyridin-3-yl)acetic acid] | < 0.1 | 
8 | Cc1nc(C)c([C@H](OC(C)(C)C)C(=O)O)c(N2CCC(C)(C)CC2)c1-c1ccc2c(c1)CCN(Cc1cccc(OC(C)C)c1)C2 [Compound 154, (S)-2-(tert-butoxy)-2-(4-(4,4-dimethylpiperidin-1-yl)-5-(2-(3-isopropoxybenzyl)-1,2,3,4-tetrahydroisoquinolin-6-yl)-2,6-dimethylpyridin-3-yl)acetic acid] | < 0.1 | 
9 | Cc1nc(C)c([C@H](OC(C)(C)C)C(=O)O)c(N2CCC(C)(C)CC2)c1-c1ccc2c(c1)CCN(Cc1ccc3c(c1)CCCO3)C2 [Compound 155, (S)-2-(tert-butoxy)-2-(5-(2-(chroman-6-ylmethyl)-1,2,3,4-tetrahydroisoquinolin-6-yl)-4-(4,4-dimethylpiperidin-1-yl)-2,6-dimethylpyridin-3-yl)acetic acid] | < 0.1 | 
10 | Cc1nc(C)c([C@H](OC(C)(C)C)C(=O)O)c(N2CCC(C)(C)CC2)c1-c1ccc2c(c1)CCN(Cc1ccc3c(c1)OCCO3)C2 [Compound 156, (S)-2-(tert-butoxy)-2-(5-(2-((2,3-dihydrobenzo[b][1,4]dioxin-6-yl)methyl)-1,2,3,4-tetrahydroisoquinolin-6-yl)-4-(4,4-dimethylpiperidin-1-yl)-2,6-dimethylpyridin-3-yl)acetic acid] | < 0.1 | 0.008
11 | Cc1nc(C)c([C@H](OC(C)(C)C)C(=O)O)c(N2CCC(C)(C)CC2)c1-c1ccc2c(c1)CCN(Cc1ccc(OC(F)F)c(OC(F)F)c1)C2 [Compound 157, (S)-2-(5-(2-(3,4-bis(difluoromethoxy)benzyl)-1,2,3,4-tetrahydroisoquinolin-6-yl)-4-(4,4-dimethylpiperidin-1-yl)-2,6-dimethylpyridin-3-yl)-2-(tert-butoxy)acetic acid] | < 0.1 | 
12 | Cc1nc(C)c([C@H](OC(C)(C)C)C(=O)O)c(N2CCC(C)(C)CC2)c1-c1ccc2c(c1)CCN(Cc1cccc3c1OCCO3)C2 [Compound 158, (S)-2-(tert-butoxy)-2-(5-(2-((2,3-dihydrobenzo[b][1,4]dioxin-5-yl)methyl)-1,2,3,4-tetrahydroisoquinolin-6-yl)-4-(4,4-dimethylpiperidin-1-yl)-2,6-dimethylpyridin-3-yl)acetic acid] | < 0.1 | 
13 | Cc1nc(C)c([C@H](OC(C)(C)C)C(=O)O)c(N2CCC(C)(C)CC2)c1-c1ccc2c(c1)CCN(Cc1c(F)cccc1Oc1ccccc1)C2 [Compound 159, (S)-2-(tert-butoxy)-2-(4-(4,4-dimethylpiperidin-1-yl)-5-(2-(2-fluoro-6-phenoxybenzyl)-1,2,3,4-tetrahydroisoquinolin-6-yl)-2,6-dimethylpyridin-3-yl)acetic acid] | < 0.1 | 
14 | Cc1cc(OC(C)C)cc(C)c1CN1CCc2cc(-c3c(C)nc(C)c([C@H](OC(C)(C)C)C(=O)O)c3N3CCC(C)(C)CC3)ccc2C1 [Compound 160, (S)-2-(tert-butoxy)-2-(4-(4,4-dimethylpiperidin-1-yl)-5-(2-(4-isopropoxy-2,6-dimethylbenzyl)-1,2,3,4-tetrahydroisoquinolin-6-yl)-2,6-dimethylpyridin-3-yl)acetic acid] | < 0.1 | 
15 | Cc1ccc(CN2CCc3cc(-c4c(C)nc(C)c([C@H](OC(C)(C)C)C(=O)O)c4N4CCC(C)(C)CC4)ccc3C2)cc1C [Compound 161, (S)-2-(tert-butoxy)-2-(5-(2-(3,4-dimethylbenzyl)-1,2,3,4-tetrahydroisoquinolin-6-yl)-4-(4,4-dimethylpiperidin-1-yl)-2,6-dimethylpyridin-3-yl)acetic acid] | < 0.1 | 
16 | Cc1nc(C)c([C@H](OC(C)(C)C)C(=O)O)c(N2CCC(C)(C)CC2)c1-c1ccc2c(c1)CCN(Cc1ccc(C3(C#N)CC3)cc1)C2 [Compound 162, (S)-2-(tert-butoxy)-2-(5-(2-(4-(1-cyanocyclopropyl)benzyl)-1,2,3,4-tetrahydroisoquinolin-6-yl)-4-(4,4-dimethylpiperidin-1-yl)-2,6-dimethylpyridin-3-yl)acetic acid] | < 0.1 | 
17 | CCCCCCCCCOc1ccc(CN2CCc3cc(-c4c(C)nc(C)c([C@H](OC(C)(C)C)C(=O)O)c4N4CCC(C)(C)CC4)ccc3C2)cc1 [Compound 163, (S)-2-(tert-butoxy)-2-(4-(4,4-dimethylpiperidin-1-yl)-2,6-dimethyl-5-(2-(4-(nonyloxy)benzyl)-1,2,3,4-tetrahydroisoquinolin-6-yl)pyridin-3-yl)acetic acid] | < 0.1 | 0.076
18 | Cc1cccc(Cl)c1CN1CCc2cc(-c3cnc(C)c([C@H](OC(C)(C)C)C(=O)O)c3N3CCC(C)(C)CC3)ccc2C1 [Compound 164, (S)-2-(tert-Butoxy)-2-(5-(2-(2-chloro-6-methylbenzyl)-1,2,3,4-tetrahydroisoquinolin-6-yl)-4-(4,4-dimethylpiperidin-1-yl)-2-methylpyridin-3-yl)acetic acid] | < 0.1 | 0.003
19 | Cc1ccccc1CN1CCc2cc(-c3cnc(C)c([C@H](OC(C)(C)C)C(=O)O)c3N3CCC(C)(C)CC3)ccc2C1 [Compound 165, (S)-2-(tert-Butoxy)-2-(4-(4,4-dimethylpiperidin-1-yl)-2-methyl-5-(2-(2-methylbenzyl)-1,2,3,4-tetrahydroisoquinolin-6-yl)pyridin-3-yl)acetic acid] | < 0.1 | 
20 | Cc1cccc(Cl)c1CN1CCc2cc(-c3c(C)nc(C)c([C@H](OC(C)(C)C)C(=O)O)c3N3CCCC(C)(C)C3)ccc2C1 [Compound 166, (S)-2-(tert-butoxy)-2-(5-(2-(2-chloro-6-methylbenzyl)-1,2,3,4-tetrahydroisoquinolin-6-yl)-4-(3,3-dimethylpiperidin-1-yl)-2,6-dimethylpyridin-3-yl)acetic acid] | < 0.1 | 0.023
